Measurements from patent US20170007617A1, “INTRAVENOUS FORMULATIONS OF A LATE SODIUM CURRENT INHIBITOR” (Gilead Sciences Drive, priority 2015, published 2017).
Values after ≈ are worked out from the molar mass of the structure shown. Read-outs that look alike come from different tables or passages of the source.

Columns and labels:
Format in all cases: physicochemical
[1] = Solubility of Compound (I) in water and solubilizing vehicles
[2] = Precipitation upon dilution of pre-concentrate into saline; details: pre-concentrated formulation of 40% TWEEN 80 and 60% PEG 400
[3] = Chemical stability in solution

solubility ([1]; 1.6% TWEEN 80 and 2.4% PEG 400 in water, aqueous with cosolvent or surfactant or cyclodextrin, 1.6% TWEEN 80 and 2.4% PEG 400 in water, read-out: solubility): 1400 µg/mL (≈ 3.37 mM) | solubility ([1]; 40% TWEEN 80 and 60% PEG 400, organic solvent or mixture, 40% TWEEN 80 and 60% PEG 400, read-out: solubility): > 100000 µg/mL | amount of PEG 400 required to achieve 0.3 mg/mL ([1]; PEG 400/water co-solvent system, 0.3 mg/mL needed in infusion media for 15 mg dose): more than 30% | solubility ([1]; about 0.4% TWEEN 80 and about 0.6% PEG 400 in water, aqueous with cosolvent or surfactant or cyclodextrin, about 0.4% TWEEN 80 and about 0.6% PEG 400 in water, read-out: solubility): 400 µg/mL (≈ 0.963 mM) | solubility ([1]; oil-in-water emulsion with 20% oil, oil or lipid, oil-in-water emulsion with 20% oil, read-out: solubility): ≤ 5000 µg/mL | solubility ([1]; safflower oil, oil or lipid, safflower oil, read-out: solubility in triglycerides): ~25000 µg/mL (≈ 60.2 mM) | solubility ([1]; water with 3.6% Captisol, aqueous with cosolvent or surfactant or cyclodextrin, water with 3.6% Captisol, read-out: solubility): 1100 µg/mL (≈ 2.65 mM) | solubility ([1]; water with 7% hydroxypropyl-β-cyclodextrin, aqueous with cosolvent or surfactant or cyclodextrin, water with 7% hydroxypropyl-β-cyclodextrin, read-out: solubility): 3200 µg/mL (≈ 7.7 mM) | solubility ([1]; water with 12% Captisol, aqueous with cosolvent or surfactant or cyclodextrin, water with 12% Captisol, read-out: solubility): 3900 µg/mL (≈ 9.39 mM) | solubility ([1]; water with 14% hydroxypropyl-β-cyclodextrin, aqueous with cosolvent or surfactant or cyclodextrin, water with 14% hydroxypropyl-β-cyclodextrin, read-out: solubility): 7400 µg/mL (≈ 17.8 mM) | solubility ([1]; water with 28% hydroxypropyl-β-cyclodextrin, aqueous with cosolvent or surfactant or cyclodextrin, water with 28% hydroxypropyl-β-cyclodextrin, read-out: solubility): 18000 µg/mL (≈ 43.3 mM) | solubility ([1]; water with 36% Captisol, aqueous with cosolvent or surfactant or cyclodextrin, water with 36% Captisol, read-out: solubility): 13700 µg/mL (≈ 33 mM) | water solubility ([1]; water, listed as compound of formula (I)): about 0.01 mg/mL | solubility ([1]; water, read-out: water solubility): 10 µg/mL (≈ 0.0241 mM) | concentration needed to avoid precipitation upon dilution [2]: ≤ 30000 µg/mL | chemical stability in solution [3]: chemically stable in solution
SMILES: O=C1c2cc(-c3ccc(OC(F)(F)F)cc3)ccc2OCCN1Cc1ncccn1 [Compound (I), 4-(pyrimidin-2-ylmethyl)-7-(4-(trifluoromethoxy)phenyl)-3,4-dihydrobenzo[f][1,4]oxazepin-5(2H)-one]
